With `CC(Oc1ccc(OC(C)(C)C(=O)O)cc1)c1ccc2cn(-c3ccc(C(F)(F)F)cc3)nc2c1` (racemic) [Example 58, (+/−)-2-Methyl-2-(4-{1-[2-(4-trifluoromethylphenyl)-2H-indazol-6-yl]ethoxy}phenoxy)propionic Acid] as the compound, how does the melting point read?
Its melting point is 144 to 146 °C.

For `CC(Oc1ccc(OC(C)(C)C(=O)O)cc1)c1cccc2nn(-c3ccc(C(F)(F)F)cc3)cc12` (racemic) [Example 75, (+/−)-2-Methyl-2-(4-{1-[2-(4-trifluoromethylphenyl)-2H-indazol-4-yl]ethoxy}phenoxy)propionic Acid], which melting point is on record?
Its melting point is 86 to 88 °C.

With `CC(Sc1ccc(OC(C)(C)C(=O)O)cc1)c1cccc2cn(-c3ccc(C(F)(F)F)cc3)nc12` (racemic) [Example 42, (+/−)-2-Methyl-2-(4-{1-[2-(4-trifluoromethylphenyl)-2H-indazol-7-yl]ethylsulfanyl}phenoxy)propionic Acid] as the compound, how does the melting point read?
The melting point was 150 to 152 °C.

With `Cc1cc(SCc2ccc3cn(-c4ccc(C(F)(F)F)cc4)nc3c2)ccc1OC(C)(C)C(=O)O` [Example 53, 2-Methyl-2-{2-methyl-4-[2-(4-trifluoromethylphenyl)-2H-indazol-6-ylmethylsulfanyl]phenoxy}propionic Acid] as the compound, how does the melting point read?
The melting point was 116 to 118 °C.

— patent publication US7544707B2, “Bicyclic derivatives as PPAR modulators” (Eli Lilly and Company, priority 2003, dated 2009)
